Columns and labels:
Type in all cases: physicochemical
[1] = BET surface area (nitrogen absorption); conditions: 11-point BET, outgassed at 40° C. under vacuum
Protocol: Surface area data were collected using nitrogen absorption on a BET Micrometics Gemini V (11-point BET analysis) analyzer. The samples were outgassed at 40° C. under vacuum for at least 2 hours. SRM 1899 and SRM 1900 were used as the calibration standards.

[2] = Particle size (Malvern MS2000); parameters: unit not given here; conditions: particle size distribution, 0.1% SPAN 85 in hexane, sonication 10 seconds, unit μm
Source text: Particle size data was acquired using a Malvern Instruments MS2000 equipped with a Hydro2000 μP dispersion unit. Data was collected and analyzed with Mastersizer 2000 v. 5.1 software, using volume based measurements. NIST traceable glass beads were used as the reference standard. […] Model: general purpose; Sensitivity: normal.

[3] = Stability and hygroscopy of crystalline Form B compared to crystalline Form A; conditions: as compared to crystalline Form A
[4] = Moisture absorption/desorption (DVS); conditions: for Weight gain from 5-55% RH / Weight gain from 55-95% RH: DVS adsorption phase; for Weight gain from 55-95% RH: samples did not reach equilibration; for Weight loss from 95-5% RH: DVS desorption phase; for Weight loss at 5% RH: DVS, upon equilibration to 5% RH
Protocol: Moisture absorption/desorption (DVS) data was collected on a VTI SGA-100 Vapor Sorption Analyzer. Absorption and desorption data were collected over a range of 5% to 95% relative humidity (RH) at 10% RH intervals under a nitrogen purge. Samples were not dried prior to analyses. Equilibrium criteria used for analyses were less than 0.0100% weight change in 5 minutes, with a maximum equilibrium time of 3 hours if the weight criterion was not met. Data were not corrected for the initial moisture content of the samples. NaCl and PVP were used as calibration standards.

Bulk and tapped density = assay: Bulk and tapped density
Source text: Samples were submitted to Particle Technology Labs (PTL), Downers Grove, Ill., for bulk and tapped density analyses.

For `CS(=O)(=O)O.CS(=O)(=O)O.CS(=O)(=O)O.NCCCC(=O)OCCN1CCN(CCCN2c3ccccc3Sc3ccc(Cl)cc32)CC1` [BL-1020 MSA salt crystalline Form B, perphenazine 4-aminobutyrate trimesylate], the BET surface area ([1]; listed as 01BIL02-01-22) was 4.77 m^2/g, the BET surface area ([1]; listed as 01BIL02-02-22) was 4.55 m^2/g and the BET surface area ([1]; listed as 01BIL02-03-22) was 4.93 m^2/g. For the same molecule, the BET surface area ([1]; listed as 01BIL02-04-22) was 4.57 m^2/g, the BET surface area ([1]; listed as 01BIL02-05-26) was 2.67 m^2/g and the BET surface area ([1]; listed as 06-01915-3) was 4.84 m^2/g. The d10 ([2]; listed as 01BIL02-01-22) was 2.1, the d50 ([2]; listed as 01BIL02-01-22) was 5.8 and the d90 ([2]; listed as 01BIL02-01-22) was 18.3. The d10 ([2]; listed as 01BIL02-02-22) was 2.1, the d50 ([2]; listed as 01BIL02-02-22) was 6.1 and the d90 ([2]; listed as 01BIL02-02-22) was 22.5. It also gave a d10 ([2]; listed as 01BIL02-03-22) of 2.1, a d50 ([2]; listed as 01BIL02-03-22) of 6.2 and a d90 ([2]; listed as 01BIL02-03-22) of 19.7. It also gave a d10 ([2]; listed as 01BIL02-04-22) of 2.3, a d50 ([2]; listed as 01BIL02-04-22) of 6.8 and a d90 ([2]; listed as 01BIL02-04-22) of 21.8. For the same molecule, the d10 ([2]; listed as 06-01915-3) was 3.8, the d50 ([2]; listed as 06-01915-3) was 9.3 and the d90 ([2]; listed as 06-01915-3) was 41.8. For the same molecule, the Hygroscopy [3] was “reduced hygroscopy”, the Stability [3] was “higher stability” and the “Weight gain from 5-55% RH” value ([4]; listed as 01BIL02-01-22) was 0.4%. The “Weight gain from 5-55% RH” value ([4]; listed as 01BIL02-02-22) was 0.4%, the “Weight gain from 5-55% RH” value ([4]; listed as 01BIL02-03-22) was 0.4% and the “Weight gain from 5-55% RH” value ([4]; listed as 01BIL02-04-22) was 0.4%. For the same molecule, the “Weight gain from 5-55% RH” value ([4]; listed as 01BIL02-05-26) was 0.4%, the “Weight gain from 5-55% RH” value ([4]; listed as 06-01915-3) was 0.6% and the “Weight gain from 55-95% RH” value ([4]; listed as 01BIL02-01-22) was 71.6%. The “Weight gain from 55-95% RH” value ([4]; listed as 01BIL02-02-22) was 69.8%, the “Weight gain from 55-95% RH” value ([4]; listed as 01BIL02-03-22) was 72.7% and the “Weight gain from 55-95% RH” value ([4]; listed as 01BIL02-04-22) was 70.5%. For the same molecule, the “Weight gain from 55-95% RH” value ([4]; listed as 01BIL02-05-26) was 68.9%, the “Weight gain from 55-95% RH” value ([4]; listed as 06-01915-3) was 71.6% and the “Weight loss from 95-5% RH” value ([4]; listed as 01BIL02-01-22) was 67.0%. For the same molecule, the “Weight loss from 95-5% RH” value ([4]; listed as 01BIL02-02-22) was 64.8%, the “Weight loss from 95-5% RH” value ([4]; listed as 01BIL02-03-22) was 67.6% and the “Weight loss from 95-5% RH” value ([4]; listed as 01BIL02-04-22) was 66.0%. The “Weight loss from 95-5% RH” value ([4]; listed as 01BIL02-05-26) was 64.8%, the “Weight loss from 95-5% RH” value ([4]; listed as 06-01915-3) was 66.9% and the “Weight loss at 5% RH” value ([4]; listed as 01BIL02-01-22) was 0.1%. The “Weight loss at 5% RH” value ([4]; listed as 01BIL02-02-22) was 0.1%, the “Weight loss at 5% RH” value ([4]; listed as 01BIL02-03-22) was 0.1% and the “Weight loss at 5% RH” value ([4]; listed as 01BIL02-04-22) was 0.1%. For the same molecule, the “Weight loss at 5% RH” value ([4]; listed as 01BIL02-05-26) was 0.3%, the “Weight loss at 5% RH” value ([4]; listed as 06-01915-3) was 0.6% and the Bulk density (Bulk and tapped density; listed as 01BIL02-01-22) was 0.16 g/mL. The Tapped density (Bulk and tapped density; listed as 01BIL02-01-22) was 0.25 g/mL, the Bulk density (Bulk and tapped density; listed as 01BIL02-02-22) was 0.16 g/mL and the Tapped density (Bulk and tapped density; listed as 01BIL02-02-22) was 0.24 g/mL. It also gave a Bulk density (Bulk and tapped density; listed as 01BIL02-03-22) of 0.18 g/mL, a Tapped density (Bulk and tapped density; listed as 01BIL02-03-22) of 0.26 g/mL and a Bulk density (Bulk and tapped density; listed as 01BIL02-04-22) of 0.13 g/mL. For the same molecule, the Tapped density (Bulk and tapped density; listed as 01BIL02-04-22) was 0.22 g/mL, the Bulk density (Bulk and tapped density; listed as 06-01915-3) was 0.18 g/mL and the Tapped density (Bulk and tapped density; listed as 06-01915-3) was 0.24 g/mL.

— patent US8377929B2, “Crystalline forms of the tri-mesylate salt of perphenazine-GABA and process of producing the same” (Ramot at Tel-Aviv University Ltd., priority 2010, dated 2013)
